Experimental data published in ChEMBL document CHEMBL5252617, “Design, synthesis and biological evaluation of novel N-(methyl-d3) pyridazine-3-carboxamide derivatives as TYK2 inhibitors” (Bioorg Med Chem Lett, 2023).
pIC50: −log10 of the molar value.

Legend:
CYP2D6 = CYP2D6 (Homo sapiens, UniProt P10635); test: Inhibition of CYP2D6 (unknown origin) at 1 uM relative to control; format: ADME
[1] = Stability in mouse liver microsomes assessed as parent compound remaining measured after 60 mins; format: ADME, Microsome; details: read-out: Stability
CYP2C19 = CYP2C19 (Homo sapiens, UniProt P33261); test: Inhibition of CYP2C19 (unknown origin) at 1 uM relative to control; format: ADME
hERG (KCNH2) = hERG (KCNH2) (Homo sapiens, UniProt Q12809); test: Inhibition of human ERG at 10 uM by patch clamp method relative to control; format: toxicity
hERG (KCNH2), sequence (Q12809 whole entry): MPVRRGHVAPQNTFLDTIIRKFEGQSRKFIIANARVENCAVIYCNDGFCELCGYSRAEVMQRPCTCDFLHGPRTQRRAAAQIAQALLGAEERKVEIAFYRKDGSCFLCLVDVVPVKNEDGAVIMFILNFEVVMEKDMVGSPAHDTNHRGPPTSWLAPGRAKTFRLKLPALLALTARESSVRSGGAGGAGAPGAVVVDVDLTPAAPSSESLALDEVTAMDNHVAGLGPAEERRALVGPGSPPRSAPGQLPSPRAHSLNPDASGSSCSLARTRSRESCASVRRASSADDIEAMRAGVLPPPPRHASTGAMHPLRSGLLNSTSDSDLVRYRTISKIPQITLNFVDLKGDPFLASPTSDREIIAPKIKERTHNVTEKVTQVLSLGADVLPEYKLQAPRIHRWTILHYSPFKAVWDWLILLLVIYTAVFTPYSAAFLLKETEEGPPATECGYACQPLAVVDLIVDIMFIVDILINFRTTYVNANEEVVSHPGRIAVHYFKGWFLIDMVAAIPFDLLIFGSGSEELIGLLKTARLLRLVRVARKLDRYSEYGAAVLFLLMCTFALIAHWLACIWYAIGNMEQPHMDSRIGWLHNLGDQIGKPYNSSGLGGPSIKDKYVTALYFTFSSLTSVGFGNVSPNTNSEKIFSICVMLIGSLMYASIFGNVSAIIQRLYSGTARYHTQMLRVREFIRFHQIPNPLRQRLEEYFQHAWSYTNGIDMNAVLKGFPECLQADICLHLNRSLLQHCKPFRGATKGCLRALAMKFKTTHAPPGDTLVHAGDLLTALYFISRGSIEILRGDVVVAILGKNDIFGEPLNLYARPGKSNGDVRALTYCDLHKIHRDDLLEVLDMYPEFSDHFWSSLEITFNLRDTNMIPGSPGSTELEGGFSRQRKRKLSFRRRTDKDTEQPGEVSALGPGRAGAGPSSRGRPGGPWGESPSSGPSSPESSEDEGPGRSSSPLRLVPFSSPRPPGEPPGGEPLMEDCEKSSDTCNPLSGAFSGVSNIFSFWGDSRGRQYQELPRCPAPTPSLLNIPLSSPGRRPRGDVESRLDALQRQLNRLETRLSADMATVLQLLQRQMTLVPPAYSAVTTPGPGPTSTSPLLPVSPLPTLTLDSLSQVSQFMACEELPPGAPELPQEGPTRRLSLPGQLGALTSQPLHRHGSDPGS

[2] = Cmax in mouse at 30 mg/kg, IG; format: ADME, organism-based; design: dose 30 mg/kg, route ig; details: in vivo, po
[3] = target: Non-receptor tyrosine-protein kinase TYK2 (Homo sapiens, UniProt P29597); test: Inhibition of TYK2 dependent IFNalpha-stimulated STAT3 phosphorylation in human Jurkat cells; format: cell-based
[4] = Half life in mouse at 30 mg/kg, IG; format: ADME, organism-based; details: in vivo, po
[5] = Tmax in mouse at 30 mg/kg, IG; format: ADME, organism-based; details: in vivo, po
[6] = target: Tyrosine-protein kinase JAK2 (Homo sapiens, UniProt O60674); test: Inhibition of JAK2 dependent GM-CSF stimulated STAT3 phosphorylation in human TF-1 cells; format: cell-based
Tyrosine-protein kinase JAK2, sequence (O60674 whole entry): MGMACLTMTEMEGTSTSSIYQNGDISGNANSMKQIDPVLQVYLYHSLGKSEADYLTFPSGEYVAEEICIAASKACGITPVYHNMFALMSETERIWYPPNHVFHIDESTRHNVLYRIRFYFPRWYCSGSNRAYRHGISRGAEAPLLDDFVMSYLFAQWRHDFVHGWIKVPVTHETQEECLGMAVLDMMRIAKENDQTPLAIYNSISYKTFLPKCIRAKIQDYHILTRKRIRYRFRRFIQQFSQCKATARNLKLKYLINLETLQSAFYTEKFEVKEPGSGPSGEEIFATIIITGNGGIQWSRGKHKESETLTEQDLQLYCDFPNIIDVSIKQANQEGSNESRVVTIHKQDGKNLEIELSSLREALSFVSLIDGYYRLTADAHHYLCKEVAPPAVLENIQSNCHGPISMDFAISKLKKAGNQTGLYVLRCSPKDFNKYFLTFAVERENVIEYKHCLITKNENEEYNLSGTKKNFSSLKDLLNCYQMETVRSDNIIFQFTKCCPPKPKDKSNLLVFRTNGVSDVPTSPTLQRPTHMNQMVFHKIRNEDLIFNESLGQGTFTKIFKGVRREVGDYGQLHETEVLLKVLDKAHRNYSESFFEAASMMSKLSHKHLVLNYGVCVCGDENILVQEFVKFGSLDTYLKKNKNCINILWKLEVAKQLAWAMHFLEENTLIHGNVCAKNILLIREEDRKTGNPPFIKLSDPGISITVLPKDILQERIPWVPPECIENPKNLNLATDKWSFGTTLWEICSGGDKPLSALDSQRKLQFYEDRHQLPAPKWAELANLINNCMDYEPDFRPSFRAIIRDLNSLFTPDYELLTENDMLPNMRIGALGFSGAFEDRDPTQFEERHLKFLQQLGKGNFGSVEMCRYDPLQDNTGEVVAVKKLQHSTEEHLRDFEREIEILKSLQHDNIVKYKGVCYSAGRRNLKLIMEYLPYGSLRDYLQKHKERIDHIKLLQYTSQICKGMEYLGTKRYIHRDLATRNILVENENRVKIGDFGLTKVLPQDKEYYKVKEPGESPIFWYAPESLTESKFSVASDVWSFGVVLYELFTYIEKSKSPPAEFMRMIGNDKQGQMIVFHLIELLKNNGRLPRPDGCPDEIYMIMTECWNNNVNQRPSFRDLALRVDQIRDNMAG

[7] = Bioavailability in mouse at 30 mg/kg, IG; format: ADME, organism-based; details: in vivo, po
[8] = Volume of distribution in mouse at 1 mg/kg, iv; format: ADME, organism-based; details: in vivo
[9] = Plasma protein binding in anti-CD40 induced immunodeficient Rag1 KO colitis mouse model; format: ADME, cell-free; details: read-out: PPB (converted)
[10] = Stability in human liver microsomes assessed as parent compound remaining measured after 60 mins; format: ADME, Microsome; details: read-out: Stability
[11] = MRT (0 to t) in mouse at 1 mg/kg, iv; format: ADME, organism-based; details: in vivo
JAK3/JAK1 = JAK3/JAK1 (Homo sapiens, UniProt P23458+P52333); test: Inhibition of JAK1/3 dependent IL-2 stimulated STAT5 phosphorylation in CD3-positive T cells (unknown origin); format: cell-based, CD3-positive T cell
JAK3/JAK1, sequence (P52333 whole entry): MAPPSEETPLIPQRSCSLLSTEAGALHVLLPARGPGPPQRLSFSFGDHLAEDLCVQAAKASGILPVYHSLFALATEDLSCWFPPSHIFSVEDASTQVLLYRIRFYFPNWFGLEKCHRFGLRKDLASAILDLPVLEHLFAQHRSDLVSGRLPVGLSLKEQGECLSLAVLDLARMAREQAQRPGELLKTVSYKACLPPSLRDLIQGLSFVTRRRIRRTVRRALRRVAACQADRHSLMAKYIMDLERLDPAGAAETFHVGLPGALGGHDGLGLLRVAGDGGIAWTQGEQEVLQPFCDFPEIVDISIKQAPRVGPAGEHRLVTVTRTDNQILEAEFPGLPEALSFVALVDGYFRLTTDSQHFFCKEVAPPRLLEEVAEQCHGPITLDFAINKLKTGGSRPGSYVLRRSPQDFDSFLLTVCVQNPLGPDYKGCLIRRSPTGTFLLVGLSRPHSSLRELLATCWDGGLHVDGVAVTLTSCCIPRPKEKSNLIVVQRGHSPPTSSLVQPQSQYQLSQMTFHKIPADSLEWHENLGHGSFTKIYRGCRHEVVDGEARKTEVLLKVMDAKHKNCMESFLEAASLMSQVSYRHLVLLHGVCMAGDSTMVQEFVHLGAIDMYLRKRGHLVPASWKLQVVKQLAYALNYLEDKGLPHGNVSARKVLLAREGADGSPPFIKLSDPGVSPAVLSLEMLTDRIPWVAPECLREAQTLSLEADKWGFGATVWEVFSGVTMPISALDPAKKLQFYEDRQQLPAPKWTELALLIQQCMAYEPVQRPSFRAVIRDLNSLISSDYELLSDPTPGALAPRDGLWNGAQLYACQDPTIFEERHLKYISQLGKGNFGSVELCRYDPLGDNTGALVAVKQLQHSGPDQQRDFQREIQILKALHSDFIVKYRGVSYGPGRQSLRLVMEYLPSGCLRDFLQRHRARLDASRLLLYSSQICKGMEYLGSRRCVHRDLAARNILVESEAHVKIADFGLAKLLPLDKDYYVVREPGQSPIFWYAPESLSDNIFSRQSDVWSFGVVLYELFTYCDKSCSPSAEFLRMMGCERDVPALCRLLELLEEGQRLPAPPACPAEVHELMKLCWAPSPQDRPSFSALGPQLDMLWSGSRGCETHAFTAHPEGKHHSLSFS
JAK3/JAK1, sequence (P23458 whole entry): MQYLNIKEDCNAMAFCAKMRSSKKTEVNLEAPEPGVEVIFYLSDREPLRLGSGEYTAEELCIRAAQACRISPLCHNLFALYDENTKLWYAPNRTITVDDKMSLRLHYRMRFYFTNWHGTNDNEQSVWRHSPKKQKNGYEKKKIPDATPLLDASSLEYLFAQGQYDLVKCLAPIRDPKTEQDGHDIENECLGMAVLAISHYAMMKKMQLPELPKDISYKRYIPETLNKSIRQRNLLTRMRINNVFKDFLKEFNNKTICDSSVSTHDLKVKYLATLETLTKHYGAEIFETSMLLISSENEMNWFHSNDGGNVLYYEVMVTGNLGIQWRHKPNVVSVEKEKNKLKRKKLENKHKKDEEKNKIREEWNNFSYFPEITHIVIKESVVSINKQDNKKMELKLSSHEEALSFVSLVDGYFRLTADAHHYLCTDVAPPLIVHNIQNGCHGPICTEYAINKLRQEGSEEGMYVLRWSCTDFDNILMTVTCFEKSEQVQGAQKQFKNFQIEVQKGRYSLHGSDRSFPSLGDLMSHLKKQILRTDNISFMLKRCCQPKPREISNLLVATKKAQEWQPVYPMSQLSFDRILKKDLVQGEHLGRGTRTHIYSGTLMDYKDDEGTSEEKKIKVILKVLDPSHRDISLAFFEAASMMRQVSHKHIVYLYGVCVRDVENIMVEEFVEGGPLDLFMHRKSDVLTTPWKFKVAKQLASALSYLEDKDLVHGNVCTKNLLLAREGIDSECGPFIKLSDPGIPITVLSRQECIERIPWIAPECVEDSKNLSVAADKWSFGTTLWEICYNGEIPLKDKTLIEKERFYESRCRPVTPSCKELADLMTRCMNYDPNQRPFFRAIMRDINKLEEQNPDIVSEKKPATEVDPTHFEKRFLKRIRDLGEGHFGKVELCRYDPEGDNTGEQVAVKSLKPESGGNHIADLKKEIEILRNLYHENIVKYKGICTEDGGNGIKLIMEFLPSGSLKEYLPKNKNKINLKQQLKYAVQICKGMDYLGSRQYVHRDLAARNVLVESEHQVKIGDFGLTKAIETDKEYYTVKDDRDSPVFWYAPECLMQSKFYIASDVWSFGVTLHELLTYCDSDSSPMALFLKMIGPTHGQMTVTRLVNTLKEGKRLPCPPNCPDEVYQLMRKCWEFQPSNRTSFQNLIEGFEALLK

[12] = AUC(0 to infinity) in mouse at 30 mg/kg, IG; format: ADME, organism-based; design: dose 30 mg/kg, route ig; details: in vivo, po
[13] = Toxicity in anti-CD40 induced immunodeficient Rag1 KO colitis mouse model assessed as body weight loss at 10 to 30 mg/kg, po bid administered for 6 days; format: organism-based; details: in vivo, 144 h, dose 10-30 mg/kg, time 6 day
[14] = C0 in mouse at 1 mg/kg, iv; format: ADME, organism-based; details: in vivo
[15] = MRT (0 to t) in mouse at 30 mg/kg, IG; format: ADME, organism-based; details: in vivo, po
[16] = AUC(0 to infinity) in mouse at 1 mg/kg, iv; format: ADME, organism-based; design: dose 1 mg/kg, route iv; details: in vivo
CYP1A2 = target: T1, CYP1A2 (Homo sapiens, UniProt P05177); test: Inhibition of CYP1A2 (unknown origin) at 1 uM relative to control; format: ADME
T1 sequence (P05177 whole entry): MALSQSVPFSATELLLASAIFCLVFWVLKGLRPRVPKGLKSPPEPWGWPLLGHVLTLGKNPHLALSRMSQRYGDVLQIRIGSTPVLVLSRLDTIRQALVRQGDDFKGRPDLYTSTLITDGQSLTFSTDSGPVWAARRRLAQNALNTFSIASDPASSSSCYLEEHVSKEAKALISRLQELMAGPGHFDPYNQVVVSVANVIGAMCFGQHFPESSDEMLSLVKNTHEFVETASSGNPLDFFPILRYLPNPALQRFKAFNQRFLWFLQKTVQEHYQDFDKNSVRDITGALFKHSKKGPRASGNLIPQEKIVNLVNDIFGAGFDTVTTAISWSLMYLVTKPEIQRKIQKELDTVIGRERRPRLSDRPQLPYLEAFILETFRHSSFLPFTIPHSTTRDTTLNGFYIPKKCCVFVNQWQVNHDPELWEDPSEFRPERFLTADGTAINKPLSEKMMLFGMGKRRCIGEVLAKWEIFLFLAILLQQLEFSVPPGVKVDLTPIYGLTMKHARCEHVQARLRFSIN

[17] = Half life in mouse at 1 mg/kg, iv; format: ADME, organism-based; details: in vivo
[18] = Clearance in mouse at 1 mg/kg, iv; format: ADME, organism-based; details: in vivo
CYP2C9 = CYP2C9 (Homo sapiens, UniProt P11712); test: Inhibition of CYP2C9 (unknown origin) at 1 uM relative to control; format: ADME
CYP2B6 = target: T2, CYP2B6 (Homo sapiens, UniProt P20813); test: Inhibition of CYP2B6 (unknown origin) at 1 uM relative to control; format: ADME
T2 sequence (P20813 whole entry): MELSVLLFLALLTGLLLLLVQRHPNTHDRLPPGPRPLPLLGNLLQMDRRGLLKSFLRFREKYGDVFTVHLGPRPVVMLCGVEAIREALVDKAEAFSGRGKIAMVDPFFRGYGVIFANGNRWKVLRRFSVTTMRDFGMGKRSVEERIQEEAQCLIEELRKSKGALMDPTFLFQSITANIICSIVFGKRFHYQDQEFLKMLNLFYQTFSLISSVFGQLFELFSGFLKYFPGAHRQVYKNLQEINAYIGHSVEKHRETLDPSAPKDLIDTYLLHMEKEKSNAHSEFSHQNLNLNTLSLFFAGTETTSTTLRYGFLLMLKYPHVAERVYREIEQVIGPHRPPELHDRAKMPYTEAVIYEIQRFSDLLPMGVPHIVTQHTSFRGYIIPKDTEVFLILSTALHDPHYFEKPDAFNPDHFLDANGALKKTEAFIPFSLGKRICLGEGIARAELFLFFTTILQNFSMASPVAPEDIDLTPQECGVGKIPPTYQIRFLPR

CYP3A4 = CYP3A4 (Homo sapiens, UniProt P08684); test: Inhibition of CYP3A4 (unknown origin) at 1 uM relative to control; format: ADME
CYP3A4, sequence (P08684 whole entry): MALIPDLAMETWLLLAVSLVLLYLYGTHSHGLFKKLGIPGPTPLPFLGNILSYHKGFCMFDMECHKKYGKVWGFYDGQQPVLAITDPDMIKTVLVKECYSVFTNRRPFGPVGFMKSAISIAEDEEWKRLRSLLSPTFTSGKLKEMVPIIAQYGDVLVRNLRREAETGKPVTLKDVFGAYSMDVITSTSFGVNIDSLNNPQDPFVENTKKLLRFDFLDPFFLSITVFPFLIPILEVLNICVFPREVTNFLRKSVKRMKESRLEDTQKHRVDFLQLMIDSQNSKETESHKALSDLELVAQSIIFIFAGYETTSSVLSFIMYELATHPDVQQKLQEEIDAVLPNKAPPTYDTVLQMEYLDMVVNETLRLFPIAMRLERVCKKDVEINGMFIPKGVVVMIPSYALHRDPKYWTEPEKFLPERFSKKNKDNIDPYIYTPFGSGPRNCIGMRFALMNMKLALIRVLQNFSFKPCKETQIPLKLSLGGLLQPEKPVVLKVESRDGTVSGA

inhibition at 1 µM (CYP2D6): -9%
remaining at 1 h [1]: 93.3%
inhibition at 1 µM (CYP2C19): -5.42%
Cmax [2]: 7100 ng/mL
pIC50 [3]: 8.32
half-life [4]: 14.7 h
Tmax [5]: 4 h
pIC50 [6]: 5.57
F [7]: 118.87%
Vd [8]: 1.29 L/kg
fraction unbound [9]: 0.0022
remaining at 1 h [10]: 106%
MRT last [11]: 2.12 h
pIC50 (JAK3/JAK1): 6.01
AUC [12]: 171069 ng·h/mL
C0 [14]: 702 ng/mL
MRT last [15]: 5.21 h
AUC [16]: 1694 ng·h/mL
inhibition at 1 µM (CYP1A2): 1.18%
half-life [17]: 1.52 h
clearance [18]: 9.83 mL/min/kg
inhibition at 1 µM (CYP2C9): 7%
inhibition at 1 µM (CYP2B6): 16.9%
inhibition at 1 µM (CYP3A4): 5.25%
SMILES: [2H]C([2H])([2H])NC(=O)c1nnc(NC(=O)C2CC2)cc1Nc1cccc(C(=O)Nc2ccc(-c3ncn(C4CC4)n3)cc2)c1OC
inhibition at 10 µM (hERG (KCNH2)): 27.8%
Activity [13]: Non-Toxic
